Experimental data as given in US7122530B2, “24-hydroxyvitamin D, analogs and uses thereof” (Genzyme Corporation, priority 1998, dated 2006).
Where two headings read alike, the source gives them in different places. Each block holds one compound with its values, some of them ahead of it.

Tests used:
[1] = Production of 1α,24(S)-(OH)2-25-ene-D2 in osteoporotic women (blood metabolite, HPLC and radioreceptor assay); format: in vivo, human; conditions: 25 μg/day for one week; one day following the last dose
Procedure: Human female subjects, who have been diagnosed with osteoporosis, are given daily doses of 25 μg/day 24-OH-25-ene-D2 for one week. Blood is collected and analyzed for the metabolite 1α,24(S)-(OH)2-25-ene-D2. Lipid is extracted from the blood, and the metabolite is purified by HPLC using standard methods and quantified with the radioreceptor assay produced by Incstar (Stillwater, Minn.).

[2] = system: postmenopausal women; conditions: cited from earlier work
[3] = In vivo generation of 1α,24-(OH)2-D2 in vitamin D-deficient rats (plasma metabolites by HPLC)
Procedure: 24-OH-D2 was administered (either oral or intraperitoneal supplementation) to vitamin D-deficient rats. Lipid extracts of the plasma were prepared and the metabolites purified by the method of Horst et al. (Horst, R. L., Koszewski, N. J. and Reinhardt, T. A., Biochem., 29:578–82 (1990) and incorporated herein by reference) described below for synthesizing standard biological 1α,24-(OH)2D2.

[4] = system: postmenopausal osteoporotic outpatients; experiment: Clinical study of osteoporosis treatment with 24-OH-preD2; format: in vivo, human; conditions: oral, above 5.0 μg/day, 24 months
Procedure: A clinical study is conducted with postmenopausal osteoporotic outpatients having ages between 55 and 75 years. The study involves up to 120 patients randomly divided into three treatment groups, and continues for 24 months. Two of the treatment groups receive constant dosages of orally administered 24-OH-preD2 (u.i.d.; two different dose levels above 5.0 μg/day) and the other group receives a matching placebo. All patients maintain a normal intake of dietary calcium (500 to 800 mg/day) and refrain from using calcium supplements. Efficacy is evaluated by pretreatment and posttreatment comparisons of the patient groups with regard to (a) total body, radial, femoral, and/or spinal bone mineral density as determined by x-ray absorptiometry (DEXA), (b) bone biopsies of the iliac crest, and (c) determinations of serum osteocalcin. Safety is evaluated by comparisons of urinary hydroxyproline excretion, serum and urine calcium levels, creatinine clearance, blood urea nitrogen, and other routine determinations.

[5] = system: patients with primary hyperparathyroidism; experiment: Clinical trial of 24-OH-preD2 for primary hyperparathyroidism; format: in vivo, human
Procedure: Twenty renal patients are enrolled in a clinical trial to study primary hyperparathyroidism. The patients show baseline iPTH levels greater than 200 pg/mL. An initial dose of 24-OH-preD2 (2–4 μg/day) is increased (maximum, 10 μg/day) or decreased as necessary to attain and maintain iPTH in the normal range. After 11–12 weeks of treatment, the iPTH levels of the patients decrease to below 100 pg/mL, and in many cases to below 60 pg/mL.

[6] = system: patients with advanced androgen-independent prostate cancer; experiment: Study of Example 10 repeated with 24-OH-preD2 in prostate cancer; format: in vivo, human; conditions: for progression of metastatic disease (CAT scans, X-rays and bone scans): phase two, after two years
Text: Patients with advanced androgen-independent prostate cancer participate in an open-label study of 24-(OH)-D2. […] On admission to the study, patients begin a course of therapy with oral 24-(OH)-D2 lasting 26 weeks, while discontinuing any previous use of calcium supplements, vitamin D supplements, and vitamin D hormone replacement therapies. During treatment, the patients are monitored at regular intervals for: (1) hypercalcemia, hyperphosphatemia, hypercalciuria, hyperphosphaturia and other toxicity; (2) evidence of changes in the progression of metastatic disease; and (3) compliance with the prescribed test drug dosage.
The study is conducted in two phases. During the first phase, the maximal tolerated dosage (MTD) of daily oral 24-(OH)D2 is determined by administering progressively higher dosages to successive groups of patients. All doses are administered in the morning before breakfast. The first group of patients is treated with 25.0 μg of 24-(OH)D2. Subsequent groups of patients are treated with 50.0, 75.0 and 100.0 μg/day. Dosing is continued uninterrupted for the duration of the study unless serum calcium exceeds 11.6 mg/dL, or other toxicity of grade 3 or 4 is observed, in which case dosing is held in abeyance until resolution of the observed toxic effect(s) and then resumed at a level which has been decreased by 10.0 μg.
The study of Example 10 is repeated for the vitamin D compound, 24-OH-preD2.

[7] = system: subjects with secondary hyperparathyroidism; experiment: Twelve-month placebo-controlled trial of 24-OH-preD2 in elderly subjects with secondary hyperparathyroidism; format: in vivo, human; conditions: 15 μg/day, twelve months
Procedure: (§1) A twelve-month double-blind placebo-controlled clinical trial is conducted with forty subjects with secondary hyperparathyroidism. The selected subjects have ages between 60 and 100 years and have a history of secondary hyperparathyroidism. Subjects also have femoral neck osteopenia (femoral neck bone mineral density of ≦0.70 g/cm^2).
(§2) All subjects enter a six-week control period after which the subjects are randomized into two treatment groups: one group receives a constant dosage of 15 μg/day 24-OH-preD2, and the other group receives a matching placebo. Both groups maintain a normal intake of dietary calcium without the use of calcium supplements. Efficacy is evaluated by pre- and post-treatment comparisons of the two patient groups with regard to (a) intact PTH (iPTH); (b) radial, femoral and spinal bone mineral density; and (c) bone-specific urine markers (e.g., pyridinium crosslinks). Safety is evaluated by (a) serium calcium and phosphorus, and (b) urine calcium and phosphorus.

[8] = Blood level of 1α,24-(OH)2-D2 in vitamin D-deficient rats given 24-OH-previtamin D2; format: in vivo; conditions: 0.25 μg/kg oral; four hours after administration
Procedure: Male weanling rats are fed a diet deficient in vitamin D and with normal calcium (0.47%). After a period of four weeks has elapsed, the rats are divided into two groups, and orally administered either 24-OH-previtamin D2 (0.25 μg/kg) in a vehicle such as lactose or the vehicle (control) alone.

[9] = system: dermatitis (contact and ectopic) patients; experiment: Double blind study of oral 24(S)-OH-preD2 formulation in dermatitis (contact and ectopic); format: in vivo, human; conditions: daily oral 10.0 to 20.0 μg, four to six weeks
Procedure: An oral dosage formulation containing 24(S)-OH-preD2 is evaluated in a double blind study for therapeutic efficacy of the formulation in the treatment of dermatitis (contact and ectopic). The formulation evaluated contains 10.0 to 20.0 μg of 24(S)-OH-preD2. […] The patients are treated in an outpatient clinic and are divided into an experimental and control population. They are instructed to take the medication once a day, in the morning before breakfast.
In each patient (experimental and control) an area of the skin containing a lesion is selected which is ordinarily covered by clothing, and the patients are instructed not to expose the skin area selected for study to sunlight. The area of the lesion is estimated and recorded, and the lesion(s) is photographed. Relevant details of the photographic procedure are recorded so as to be reproduced when the lesions are next photographed (distance, aperture, angle, background, etc.).
Evaluations of erythema, scaling, and thickness are conducted at weekly intervals by a physician. The final evaluation is usually carried out at the end of four to six weeks of treatment.

[10] = system: subjects with secondary hyperparathyroidism; experiment: Twelve-month placebo-controlled trial of 24-(OH)-D4 in elderly subjects with secondary hyperparathyroidism; format: in vivo, human; conditions: 15 μg/day, twelve months
Procedure: as §1
as §2, with “24-(OH)-D4,” for “24-OH-preD2,”

[11] = system: postmenopausal osteoporotic out-patients; experiment: Clinical study of prevention of bone mass loss with 24(S)-OH-25-ene-D2; format: in vivo, human; conditions: at or above 5.0 μg/day, 24 to 36 months
Procedure: A clinical study is conducted with postmenopausal osteoporotic out-patients having ages between 55 and 75 years. The study involves up to 120 patients randomly divided into three treatment groups and continues for 24 to 36 months. Two of the treatment groups receive constant dosages of 24(S)-OH-25-ene-D2 (u.i.d.; two different dose levels at or above 5.0 μg/day) and the other group receives a matching placebo. All patients maintain a normal intake of dietary calcium (500 to 800 mg/day) and refrain from using calcium supplements. Efficacy is evaluated by pre- and post-treatment comparisons of the patient groups with regard to (a) total body calcium retention, and (b) radial and spinal bone mineral density as determined by dual-photon absorptiometry (DPA) or dual-energy x-ray absorptiometry (DEXA). Safety is evaluated by comparisons of urinary hydroxyproline excretion, serum and urine calcium levels, creatinine clearance, blood urea nitrogen, and other routine determinations.

[12] = system: patients (Japan; senile osteoporosis); conditions: cited from earlier work

level of 1α,24(S)-(OH)2-25-ene-D2 in the blood [1]: significant level
Compound: 24-hydroxy-25-ene-vitamin D2 [24-OH-25-ene-D2]

Compound: C=C1/C(=C\C=C2/CCC[C@]3(C)[C@@H]([C@H](C)CCCC(C)(C)O)CC[C@@H]23)C[C@@H](O)C[C@@H]1O [1α,25-dihydroxyvitamin D3]
intestinal calcium absorption and calcium balance ([2]; 0.5 μg/day, postmenopausal women): improved
effects on bone mass or mineral content ([2]; dosage levels below 0.5 μg/day): no effects are observed

Compound: C=C1CC[C@H](O)C/C1=C/C=C1\CCC[C@]2(C)[C@@H]([C@H](C)CCCC(C)C)CC[C@@H]12 [vitamin D3]
detectable 24-OH-D3 in plasma ([3]; comparable vitamin D-deficient rats): no detectable 24-OH-D3

Compound: 24-hydroxyprevitamin D2 [24-OH-preD2]
bone biopsies (bone formation) [4]: stimulates normal bone formation
incidence of hypercalcemia or hypercalciuria, or any other metabolic disturbance [4]: insignificant incidence
serum osteocalcin [4]: significant elevations
total body, radial, femoral, and/or spinal bone densities relative to placebo [4]: significantly higher
iPTH levels of the patients ([5]; after 11–12 weeks, baseline greater than 200 pg/mL, 2–4 μg/day, titrated): below 100 pg/mL
iPTH levels, in many cases ([5]; after 11–12 weeks, in many cases): below 60 pg/mL
episodes of hypercalcemia ([5]; during the study): few episodes of hypercalcemia
progression of metastatic disease (CAT scans, X-rays and bone scans) ([6]; higher dosage): stable disease and partial or complete remission in many patients
progression of metastatic disease (CAT scans, X-rays and bone scans) ([6]; lower dosage): stable disease or partial remission in many patients
bone pain associated with metastatic disease ([6]; treated with the MTD for at least six months): significantly diminished
bone specific urine markers [7]: significantly decreases
incidence of hypercalcemia [7]: insignificant incidence
intact PTH (iPTH) [7]: significantly decreases
radial and spinal bone densities relative to baseline values [7]: stable
serum calcium levels [7]: normal serum calcium levels
blood level of 1α,24-(OH)2-D2 versus control animals [8]: significantly elevated

Compound: C=C1CC[C@H](O)C/C1=C/C=C1\CCC[C@]2(C)[C@@H]([C@H](C)/C=C/[C@H](C)C(C)C)CC[C@@H]12 [vitamin D2]
metabolite isolated from plasma lipid extracts versus standard 1α,24-(OH)2D2 ([3]; vitamin D-deficient rats, oral or intraperitoneal supplementation, HPLC): co-migrated on HPLC with the standard 1α,24-(OH)2D2

Compound: 24(S)-hydroxyprevitamin D2 [24(S)-OH-preD2]
degree of erythema, scaling, and thickness versus control patients [9]: significantly reduces

serum calcium levels [10]: normal serum calcium levels
Compound: C=C1CC[C@H](O)C/C1=C/C=C1\CCC[C@]2(C)[C@@H]([C@H](C)CCC(C)(O)C(C)C)CC[C@@H]12 (some centres unmarked) [24-(OH)-D4, 24-hydroxyvitamin D4]
bone specific urine markers [10]: significantly decreases
incidence of hypercalcemia [10]: insignificant incidence
intact PTH (iPTH) [10]: significantly decreases
radial and spinal bone densities relative to baseline values [10]: stable

Compound: C=C1CC[C@H](O)C/C1=C/C=C1\CCC[C@]2(C)[C@@H]([C@H](C)/C=C/[C@](C)(O)C(=C)C)CC[C@@H]12 [24(S)-OH-25-ene-D2]
incidence of hypercalcemia or hypercalciuria, or any other metabolic disturbance [11]: insignificant incidence
total body calcium, and radial and spinal bone densities relative to placebo [11]: significantly higher

Compound: C=C1/C(=C\C=C2/CCC[C@]3(C)[C@@H]([C@H](C)CCCC(C)C)CC[C@@H]23)C[C@@H](O)C[C@@H]1O [1α-hydroxyvitamin D3]
efficacy ([12]; 1 μg/day, Japan, low calcium intake): efficacy is found
patients in whom toxicity occurs ([12]; 1 μg/day): approximately 20%
patients in whom toxicity occurs ([12]; 2 μg/day): approximately 67%
